This assay has as its target T1, recombinant human MCHR1-receptors (Homo sapiens, UniProt Q99705).
T1 construct: expressed in transfected cells
Kind of assay: MCHR filter binding assay (competition binding). The settings on record: membranes from CHO-K1 cells expressing human MCHR1; 0.2 nM [Phe13,[125I]Tyr19]-MCH; read-out: IC50 (nM), in vitro activity (binding assay). In outline: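 Membranes from CHO-K1 cells stably expressing human MCHR1 (2.8 μg) preincubated 15 min with competitor, then 1 h at rt with 0.2 nM [Phe13,[125I]Tyr19]-MCH in HEPES/CaCl2/BSA/phenanthroline/Triton buffer. Bound radioactivity counted after rapid filtration over PVP/BSA-treated GF/B filters.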

The structures appear in SMILES notation. Counter-ions that a name gives are not always drawn.

T1 sequence (Q99705 whole entry): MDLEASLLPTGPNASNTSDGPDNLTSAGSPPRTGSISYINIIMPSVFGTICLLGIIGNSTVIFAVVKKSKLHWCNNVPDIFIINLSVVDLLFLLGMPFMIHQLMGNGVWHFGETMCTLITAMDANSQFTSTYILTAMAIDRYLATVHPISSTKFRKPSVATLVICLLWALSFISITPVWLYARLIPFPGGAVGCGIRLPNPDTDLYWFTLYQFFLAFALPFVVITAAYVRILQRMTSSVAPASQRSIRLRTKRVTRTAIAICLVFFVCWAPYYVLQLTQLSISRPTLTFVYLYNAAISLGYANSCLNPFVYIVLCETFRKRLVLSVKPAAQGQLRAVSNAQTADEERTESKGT

Consider `Cc1ccc2c(c1)ncn2C1CCN(CC2Cc3ccc(NC(=O)C(C)C)cc3C2)CC1` (centres unmarked) [Example 78, N-{2-[4-(5-Methyl-benzoimidazol-1-yl)-piperidin-1-ylmethyl]-indan-5-yl}-isobutyramide], for which the IC50 is 20 to 200 nM. The result for `CCCC(=O)Nc1ccc2c(c1)C[C@H](CN1CC[C@@H](n3c(C4CC4)nc4cc(C)ccc43)[C@H](OC)C1)C2` [Example 79, N-{(R)-2-[(3R,4R)-4-(2-Cyclopropyl-5-methyl-benzoimidazol-1-yl)-3-methoxy-piperidin-1-ylmethyl]-indan-5-yl}-butyramide] reads 20 to 200 nM. For the molecule `CO[C@@H]1CN(C[C@@H]2Cc3ccc(NC(=O)C4CC4)cc3C2)CC[C@H]1n1c(C2CC2)nc2cc(C)ccc21` [Example 80, Cyclopropanecarboxylic acid {(R)-2-[(3R,4R)-4-(2-cyclopropyl-5-methyl-benzoimidazol-1-yl)-3-methoxy-piperidin-1-ylmethyl]-indan-5-yl}-amide], the IC50 lay within 200 to 5000 nM. With `CO[C@H]1CN(CC2Cc3ccccc3C2)CC[C@@H]1n1c(C)nc2cc(C)ccc21` [Example 81, 1-((3S,4S)-1-Indan-2-ylmethyl-3-methoxy-piperidin-4-yl)-2,5-dimethyl-1H-benzoimidazole] the figure was 200 to 5000 nM. Consider `CC(=O)c1nc2cc(C)ccc2n1C1CCN(CC2Cc3ccccc3C2)CC1` [Example 82, 1-[1-(1-Indan-2-ylmethyl-piperidin-4-yl)-5-methyl-1H-benzoimidazol-2-yl]-ethanone], for which the 50% inhibitory concentration (IC50) was 200 to 5000 nM. With `Cc1ccc2c(c1)nc(C(C)C)n2[C@@H]1CCN(CC2Cc3ccccc3C2)C[C@H]1O` [Example 83, (3R,4R)-1-Indan-2-ylmethyl-4-(2-isopropyl-5-methyl-benzoimidazol-1-yl)-piperidin-3-ol] the figure was 200 to 5000 nM.

For the molecule `CCC(=O)Nc1ccc2c(c1)C[C@H](CN1CC[C@@H](n3c(C(C)C)nc4cc(C)ccc43)[C@H](O)C1)C2` [Example 84, N-{(R)-2-[(3R,4R)-3-Hydroxy-4-(2-isopropyl-5-methyl-benzoimidazol-1-yl)-piperidin-1-ylmethyl]-indan-5-yl}-propionamide], the IC50 was below 20 nM. With `CO[C@@H]1CN(C[C@H]2Cc3ccc(C#N)cc3C2)CC[C@H]1n1c(C)nc2cc(C)ccc21` [Example 85, (S)-2-[(3R,4R)-4-(2,5-Dimethyl-benzoimidazol-1-yl)-3-methoxy-piperidin-1-ylmethyl]-indan-5-carbonitrile] the figure was below 20 nM.

In the case of `Cc1ccc2c(c1)nc(C(C)C)n2[C@@H]1CCN(C[C@@H]2Cc3ccc(NC(=O)C(C)C)cc3C2)C[C@H]1O` [Example 86, N-{(R)-2-[(3R,4R)-3-Hydroxy-4-(2-isopropyl-5-methyl-benzoimidazol-1-yl)-piperidin-1-ylmethyl]-indan-5-yl}-isobutyramide], the IC50 was in the range of 20 to 200 nM. The result for `CO[C@@H]1CN(C[C@@H]2Cc3ccc(Br)cc3C2)CC[C@H]1n1c(C)nc2cc(C)ccc21` [Example 87, 1-[(3R,4R)-1-((R)-5-Bromo-indan-2-ylmethyl)-3-methoxy-piperidin-4-yl]-2,5-dimethyl-1H-benzoimidazole; dihydrochloride] reads 20 to 200 nM; that for `Cc1ccc2c(c1)nc(C)n2[C@@H]1CCN(C[C@H]2Cc3ccc(NC(=O)C4CC4)cc3C2)C[C@H]1O` [Example 88, Cyclopropanecarboxylic acid {(S)-2-[(3R,4R)-4-(2,5-dimethyl-benzoimidazol-1-yl)-3-hydroxy-piperidin-1-ylmethyl]-indan-5-yl}-amide], 20 to 200 nM. The result for `CO[C@@H]1CN(C[C@@H]2Cc3ccc(Br)cc3C2)CC[C@H]1n1c(C(C)C)nc2cc(C)ccc21` [Example 89, 1-[(3R,4R)-1-((R)-5-Bromo-indan-2-ylmethyl)-3-methoxy-piperidin-4-yl]-2-isopropyl-5-methyl-1H-benzoimidazole] reads 20 to 200 nM. The result for `CO[C@H]1CN(C[C@@H]2Cc3ccc(Br)cc3C2)CC[C@@H]1n1c(C(C)C)nc2cc(C)ccc21` [Example 90, 1-[(3S,4S)-1-((R)-5-Bromo-indan-2-ylmethyl)-3-methoxy-piperidin-4-yl]-2-isopropyl-5-methyl-1H-benzoimidazole] reads 200 to 5000 nM; that for `CO[C@H]1CN(C[C@H]2Cc3ccc(Br)cc3C2)CC[C@@H]1n1c(C)nc2cc(C)ccc21` [Example 91, 1-[(3S,4S)-1-((S)-5-Bromo-indan-2-ylmethyl)-3-methoxy-piperidin-4-yl]-2,5-dimethyl-1H-benzoimidazole; dihydrochloride], 20 to 200 nM; that for `COc1ccc2c(c1)CC(CN1CC[C@H](n3c(C)nc4cc(C)ccc43)[C@@H](OC)C1)C2` (stereo partly drawn) [Example 92, 1-[(3S,4S)-3-Methoxy-1-(5-methoxy-indan-2-ylmethyl)-piperidin-4-yl]-2,5-dimethyl-1H-benzoimidazole; dihydrochloride], 20 to 200 nM. Consider `COc1ccc2c(c1)CC(CN1CC[C@H](n3c(C(C)C)nc4cc(C)ccc43)[C@@H](OC)C1)C2` (stereo partly drawn) [Example 93, 2-Isopropyl-1-[(3S,4S)-3-methoxy-1-(5-methoxy-indan-2-ylmethyl)-piperidin-4-yl]-5-methyl-1H-benzoimidazole dihydrochloride], for which the IC50 fell in the range of 20 to 200 nM.

Take `CO[C@H]1CN(CC2Cc3cc(Cl)c(Cl)cc3C2)CC[C@@H]1n1c(C)nc2cc(C)ccc21` [Example 94, 1-[(3S,4S)-1-(5,6-Dichloro-indan-2-ylmethyl)-3-methoxy-piperidin-4-yl]-2,5-dimethyl-1H-benzoimidazole; dihydrochloride]: the IC50 lay in the range of 200 to 5000 nM. For `CO[C@H]1CN(CC2Cc3cc(Cl)c(Cl)cc3C2)CC[C@@H]1n1c(C(C)C)nc2cc(C)ccc21` [Example 95, 1-[(3S,4S)-1-(5,6-Dichloro-indan-2-ylmethyl)-3-methoxy-piperidin-4-yl]-2-isopropyl-5-methyl-1H-benzoimidazole; dihydrochloride], the IC50 was in the range of 200 to 5000 nM. With `Cc1ccc2c(c1)nc(C(C)(C)O)n2C1CCN(C[C@@H]2Cc3ccc(Br)cc3C2)CC1` [Example 96, 2-{1-[1-((R)-5-Bromo-indan-2-ylmethyl)-piperidin-4-yl]-5-methyl-1H-benzoimidazol-2-yl}-propan-2-ol] the figure was 20 to 200 nM. Take `CO[C@@H]1CN(CC2Cc3cccc(Cl)c3C2)CC[C@H]1n1c(C)nc2cc(C)ccc21` (stereo partly drawn) [Example 97, 1-[(3R,4R)-1-(4-Chloro-indan-2-ylmethyl)-3-methoxy-piperidin-4-yl]-2,5-dimethyl-1H-benzoimidazole]: the half-inhibitory concentration (IC50) lay within 20 to 200 nM. The result for `CO[C@@H]1CN(CC2Cc3ccc(C(C)C)cc3C2)CC[C@H]1n1c(C(C)C)nc2cc(C)ccc21` (stereo partly drawn) [Example 98, 2-Isopropyl-1-[(3R,4R)-1-(5-isopropyl-indan-2-ylmethyl)-3-methoxy-piperidin-4-yl]-5-methyl-1H-benzoimidazole] reads 200 to 5000 nM; that for `Cc1ccc2c(c1)nc(C(C)(C)O)n2C1CCN(C[C@H]2Cc3ccc(Br)cc3C2)CC1` [Example 99, 2-{1-[1-((S)-5-Bromo-indan-2-ylmethyl)-piperidin-4-yl]-5-methyl-1H-benzoimidazol-2-yl}-propan-2-ol], below 20 nM. The result for `CO[C@H]1CN(CC2Cc3cc(F)c(F)cc3C2)CC[C@@H]1n1c(C(C)C)nc2cc(C)ccc21` [Example 100, 1-[(3S,4S)-1-(5,6-Difluoro-indan-2-ylmethyl)-3-methoxy-piperidin-4-yl]-2-isopropyl-5-methyl-1H-benzoimidazole] reads 20 to 200 nM.

Source of the values: patent publication US7803816B2, “MCH receptor antagonists” (Hoffmann-La Roche Inc., priority 2005, dated 2010).
